Results on three molecules are retold here after US8173699B2, “Compounds for the treatment of inflammatory diseases” (Boehringer Ingelheim International GmbH, priority 2005, dated 2012).

Structures can show the parent of a compound that is named as a salt.

Turning to `CN(C)C(=O)CN(c1cccc(N/C(=C2\C(=O)Oc3ccccc32)c2ccc(CN)c(F)c2)c1)S(C)(=O)=O` (as salt: HCl) [Example 101], the melting point fell in the range of 253 to 254 °C.
The result for `CN1C(=O)/C(=C(\Nc2ccc(-c3cn(C)cn3)cc2)c2ccc(CN)cc2)c2ccccc21` [Example 36, 3-{(4-aminomethylphenyl)-[4-(1-methyl-1H-imidazol-4-yl)phenylamino]methylene}-1-methyl-1,3-dihydroindol-2-one] reads 214 to 217 °C; that for `Cc1nc(-c2ccc(N/C(=C3\C(=O)Oc4ccccc43)c3ccc(CN)c(F)c3)cc2)cs1` [Example 102], 196 to 197 °C.
